From patent US20240042050A1, “ANTI-HER2 IMMUNOCONJUGATES, AND USES THEREOF” (BOLT BIOTHERAPEUTICS, INC., priority 2020, published 2024)

Tests used:
human TLR7 = target: T1, human TLR7 (Homo sapiens, UniProt Q9NYK1); assay: HEK Reporter Assay, HEK293 reporter cells expressing human TLR7; format: cell-based; conditions: HEK293 NFKB reporter cells expressing human TLR7; read-out: HEK293 hTLR7 EC50
T1 construct: host or cells: HEK293 NF-kB reporter cells
T1 sequence (Q9NYK1 27-1049): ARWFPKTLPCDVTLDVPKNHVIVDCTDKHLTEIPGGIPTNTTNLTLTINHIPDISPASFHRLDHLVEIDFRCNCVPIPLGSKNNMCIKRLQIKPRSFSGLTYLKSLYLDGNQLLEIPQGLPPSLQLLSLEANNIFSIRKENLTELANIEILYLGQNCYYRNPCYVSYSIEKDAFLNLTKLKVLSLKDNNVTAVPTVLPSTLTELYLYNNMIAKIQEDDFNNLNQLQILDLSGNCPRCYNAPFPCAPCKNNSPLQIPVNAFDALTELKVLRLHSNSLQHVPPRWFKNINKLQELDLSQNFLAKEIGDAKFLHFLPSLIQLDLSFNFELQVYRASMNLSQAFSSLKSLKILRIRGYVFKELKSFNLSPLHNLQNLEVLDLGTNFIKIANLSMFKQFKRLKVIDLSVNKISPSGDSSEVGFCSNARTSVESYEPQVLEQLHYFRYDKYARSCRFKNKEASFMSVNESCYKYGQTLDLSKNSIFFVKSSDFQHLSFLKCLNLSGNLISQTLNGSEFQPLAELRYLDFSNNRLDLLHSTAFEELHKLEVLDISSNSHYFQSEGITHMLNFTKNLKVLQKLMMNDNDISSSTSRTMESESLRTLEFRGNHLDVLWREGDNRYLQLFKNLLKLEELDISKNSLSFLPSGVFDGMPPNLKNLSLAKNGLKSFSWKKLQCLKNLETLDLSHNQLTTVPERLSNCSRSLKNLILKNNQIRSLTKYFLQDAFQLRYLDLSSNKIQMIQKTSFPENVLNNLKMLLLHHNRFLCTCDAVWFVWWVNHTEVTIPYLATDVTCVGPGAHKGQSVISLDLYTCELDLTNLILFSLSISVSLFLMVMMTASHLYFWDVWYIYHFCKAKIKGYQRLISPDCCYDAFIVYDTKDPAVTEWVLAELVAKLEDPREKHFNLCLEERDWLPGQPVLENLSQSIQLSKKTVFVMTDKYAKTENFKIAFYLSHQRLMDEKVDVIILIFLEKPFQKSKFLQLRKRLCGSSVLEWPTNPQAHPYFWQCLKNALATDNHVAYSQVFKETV
Description: (§1) Each compound was synthesized, purified, and characterized by mass spectrometry and shown to have the mass indicated. Additional experimental procedures are found in the Examples. Activity against HEK293 NFKB reporter cells expressing human TLR7 or human TLR8 was measured according to Example 202.
(§2) Example 202 HEK Reporter Assay
(§3) HEK293 reporter cells expressing human TLR7 or human TLR8 were purchased from Invivogen and vendor protocols were followed for cellular propagation and experimentation. Briefly, cells were grown to 80-85% confluence at 5% CO2 in DMEM supplemented with 10% FBS, Zeocin, and Blasticidin. Cells were then seeded in 96-well flat plates at 4×10^4 cells/well with substrate containing HEK detection medium and immunostimulatory molecules.

human TLR8 = target: T2, human TLR8 (Homo sapiens, UniProt Q9NR97); assay: HEK Reporter Assay, HEK293 reporter cells expressing human TLR8; format: cell-based; conditions: HEK293 NFKB reporter cells expressing human TLR8; read-out: HEK293 hTLR8 EC50
T2 construct: host or cells: HEK293 NF-kB reporter cells
T2 sequence (Q9NR97 27-1041): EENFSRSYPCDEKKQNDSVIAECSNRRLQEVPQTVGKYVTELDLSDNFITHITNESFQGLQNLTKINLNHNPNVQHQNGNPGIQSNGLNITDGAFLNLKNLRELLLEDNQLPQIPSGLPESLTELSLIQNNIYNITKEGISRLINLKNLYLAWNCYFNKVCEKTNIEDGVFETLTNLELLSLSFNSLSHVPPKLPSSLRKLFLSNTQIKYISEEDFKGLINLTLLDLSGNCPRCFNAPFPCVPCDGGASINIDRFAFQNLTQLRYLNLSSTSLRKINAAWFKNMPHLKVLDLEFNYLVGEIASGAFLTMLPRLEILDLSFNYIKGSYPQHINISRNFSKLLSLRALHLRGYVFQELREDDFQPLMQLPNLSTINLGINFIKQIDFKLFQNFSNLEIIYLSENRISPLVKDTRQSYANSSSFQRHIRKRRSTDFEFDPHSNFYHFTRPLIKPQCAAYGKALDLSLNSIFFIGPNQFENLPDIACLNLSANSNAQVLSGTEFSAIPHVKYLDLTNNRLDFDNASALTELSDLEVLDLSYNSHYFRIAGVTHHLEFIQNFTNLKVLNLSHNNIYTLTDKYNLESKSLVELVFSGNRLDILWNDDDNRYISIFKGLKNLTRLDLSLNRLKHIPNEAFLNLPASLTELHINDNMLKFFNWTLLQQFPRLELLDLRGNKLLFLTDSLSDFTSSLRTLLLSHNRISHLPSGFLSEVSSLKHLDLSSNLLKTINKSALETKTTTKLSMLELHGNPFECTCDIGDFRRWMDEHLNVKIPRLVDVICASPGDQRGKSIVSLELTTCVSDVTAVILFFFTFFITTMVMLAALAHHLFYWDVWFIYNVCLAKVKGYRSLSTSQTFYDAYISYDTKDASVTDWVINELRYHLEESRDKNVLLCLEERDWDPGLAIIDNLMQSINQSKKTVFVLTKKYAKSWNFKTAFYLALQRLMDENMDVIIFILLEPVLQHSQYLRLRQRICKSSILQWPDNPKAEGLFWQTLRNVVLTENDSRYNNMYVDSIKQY
Description: as §1, §2, §3

Row | EC50 (human TLR7) [nM] | EC50 (human TLR8) [nM] | SMILES
1 | 5140 | 1080 | CCCN(CCCCO)C(=O)C1=Cc2ccc(-c3cccc(S(=O)(=O)N4CC(CNC(=O)OC(C)(C)C)C4)c3)cc2N=C(N)C1 [PhBz-9]
2 | 3520 | 423 | CCCN(CCO)C(=O)C1=Cc2ccc(-c3cccc(S(=O)(=O)N4CC(CNC(=O)OC(C)(C)C)C4)c3)cc2N=C(N)C1 [PhBz-21]
3 | – | 822 | CCCN(OCCO)C(=O)C1=Cc2ccc(-c3cccc(S(=O)(=O)N4CC(CN)C4)c3)cc2N=C(N)C1 [PhBz-25]
